Positions of bridges follow the written chain, without caps; N, C: chain ends. Non-standard residues stand in square brackets, D forms with d. Residues, ends and D or L forms follow the SMILES beside them. Groups on a side chain read outwards from the residue. *: point of attachment. Me3N+(CH2)2O(CH2)2O(CH2)2CO = C[N+](C)(C)CCOCCOCCC(=O)*; CH2CH2OCH2CH2OCH2CH2NMe3+ = C[N+](C)(C)CCOCCOCC*; Trp(7-Me) = Cc1cccc2c(C[C@H](N)C(=O)O)c[nH]c12; X28 = CCCCCCCCCCCCCCCC[N+](C)(C)CCc1cn(CC*)nn1; X60 = CCCCCCCC[N+](C)(C)CCc1cn(CC*)nn1; 2Nal = N[C@@H](Cc1ccc2ccccc2c1)C(=O)O; AEF = NCCOc1ccc(C[C@H](N)C(=O)O)cc1; X50 = CCCC[N+](CCCC)(CCCC)CCOCCOCC*; PEG6 = NCCOCCOCCOCCOCCOCCOCCC(=O)O; 3Pal = N[C@@H](Cc1cccnc1)C(=O)O; Lys(Me) = CNCCCC[C@H](N)C(=O)O; Pen = CC(C)(S)[C@H](N)C(=O)O; Thp = NC1(C(=O)O)CCOCC1; X3 = C[N+](C)(C)CCCCC*; Sar = CNCC(=O)O
How the values were obtained:
[1] = Exposed Polar Surface Area (EPSA); format: physicochemical; settings: SFC on Chirex 3014 column; sample 1 mM DMSO stock; read-out: EPSA
Method in brief: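 Compounds, as 1 mM DMSO stock, were injected in duplicate onto an SFC Chirex 3014 column at 35 °C and eluted with a CO2/methanol (20 mM ammonium formate) gradient. EPSA values in Å^2 were derived from retention times using a linear fit to eight calibration standards, reinjected every 20 compounds.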

IL-23R = target: T1, IL-23R (Homo sapiens, UniProt Q5VWK5); test: IL23R Reporter Assay; format: cell-based; settings: HEK293 cells containing IL-23R, IL-12RP1 and STAT-inducible firefly luciferase reporter; 10 ng/mL IL-23 (EC90); 5 h at 37° C.; read-out: IL23R Reporter Assay
T1 construct: host or cells: HEK293
T1 sequence (Q5VWK5 24-629): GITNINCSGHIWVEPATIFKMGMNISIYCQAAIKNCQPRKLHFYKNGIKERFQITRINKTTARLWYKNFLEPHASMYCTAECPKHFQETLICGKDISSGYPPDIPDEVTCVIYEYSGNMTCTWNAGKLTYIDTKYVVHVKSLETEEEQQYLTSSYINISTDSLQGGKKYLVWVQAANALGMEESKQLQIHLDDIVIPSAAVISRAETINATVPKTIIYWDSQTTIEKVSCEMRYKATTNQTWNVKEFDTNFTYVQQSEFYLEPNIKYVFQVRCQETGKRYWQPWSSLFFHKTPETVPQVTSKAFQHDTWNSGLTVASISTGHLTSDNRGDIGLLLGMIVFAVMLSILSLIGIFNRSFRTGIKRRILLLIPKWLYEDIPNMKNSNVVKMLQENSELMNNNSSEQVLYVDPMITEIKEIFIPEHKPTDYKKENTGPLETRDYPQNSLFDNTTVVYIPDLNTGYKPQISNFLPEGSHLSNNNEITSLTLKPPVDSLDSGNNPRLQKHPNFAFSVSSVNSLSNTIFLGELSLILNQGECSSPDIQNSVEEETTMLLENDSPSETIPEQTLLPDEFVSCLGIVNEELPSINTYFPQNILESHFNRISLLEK

Row | Compound | EPSA [1] | IC50 (IL-23R)
1 | CC(=O)NCCCC[C@H](NC(=O)C1(NC(=O)[C@H](Cc2ccc3ccccc3c2)NC(=O)[C@H](Cc2ccc(OCCOCCOCC[N+](C)(C)C)cc2)NC(=O)[C@H]2NC(=O)[C@H](CCCCN(C)C(C)=O)NC(=O)[C@H](Cc3c[nH]c4c(C)cccc34)NC(=O)[C@H]([C@@H](C)O)NC(=O)[C@H](CC(=O)N(C)C)NC(=O)[C@@H](NC(=O)CCOCCOCC[N+](C)(C)C)C(C)(C)SSC2(C)C)CCOCC1)C(=O)N[C@@H](CC(N)=O)C(=O)N[C@@H](Cc1cccnc1)C(=O)N(C)CC(=O)N(C)C [compound 233, cPEG3aCO-Pen(3)-N(N(Me)2)-T-7MeW-K(NMeAc)-Pen(3)-APEG3F-2Nal-THP-K(Ac)-N-3Pya-Sar-CON(Me)2] ({Me3N+(CH2)2O(CH2)2O(CH2)2CO}-[Pen]D(NMe2)T[Trp(7-Me)][Lys(Me)](Ac)[Pen]Y(CH2CH2OCH2CH2OCH2CH2NMe3+)[2Nal][Thp]K(Ac)N[3Pal][Sar]-NMe2; disulfide 1-6) | 141 A^2 | 3 nM
2 | CC(=O)NCCCC[C@@H]1NC(=O)[C@H](Cc2c[nH]c3c(C)cccc23)NC(=O)[C@H]([C@@H](C)O)NC(=O)[C@H](CC(N)=O)NC(=O)[C@@H](NC(=O)[C@@H](CCCCNC(=O)CCOCCOCCOCCOCCOCCOCCNC(C)=O)NC(C)=O)C(C)(C)SSC(C)(C)[C@@H](C(=O)N[C@@H](Cc2ccc(OCCN)cc2)C(=O)N[C@@H](Cc2ccc3ccccc3c2)C(=O)NC2(C(=O)N[C@@H](CCCCNC(C)=O)C(=O)N[C@@H](CC(N)=O)C(=O)N[C@@H](Cc3cccnc3)C(=O)N(C)CC(N)=O)CCOCC2)NC1=O [compound 39] (Ac-[dK]([PEG6-Ac])[Pen]NT[Trp(7-Me)]K(Ac)[Pen][AEF][2Nal][Thp]K(Ac)N[3Pal][Sar]-NH2; disulfide 2-7 (inferred)) | 158 A^2 | 5.5 nM
3 | CC(=O)N(C)CCCC[C@@H]1NC(=O)[C@H](CC(C)C)NC(=O)[C@H]([C@@H](C)O)NC(=O)[C@H](CC(=O)N(C)C)NC(=O)[C@@H](NC(=O)CCOCCOCC[N+](C)(C)C)C(C)(C)SSC(C)(C)[C@@H](C(=O)N[C@@H](Cc2ccc(OCCOCCOCC[N+](C)(C)C)cc2)C(=O)N[C@@H](CC(C)C)C(=O)NC2(C(=O)N[C@@H](CCCCN(C)C(C)=O)C(=O)N[C@@H](CC(N)=O)C(=O)N[C@@H](Cc3cccnc3)C(=O)N(C)CC(=O)N(C)C)CCOCC2)NC1=O [compound 566, cPEG3aCO-Pen(3)-N(N(Me)2)-T-L-K(NMeAc)-Pen(3)-APEG3F-L-THP-K(NMeAc)-N-3Pya-Sar-CON(Me)2] ({Me3N+(CH2)2O(CH2)2O(CH2)2CO}-[Pen]D(NMe2)TL[Lys(Me)](Ac)[Pen]Y(CH2CH2OCH2CH2OCH2CH2NMe3+)L[Thp][Lys(Me)](Ac)N[3Pal][Sar]-NMe2; disulfide 1-6) | 137 A^2 | > 3320 nM
4 | CCCC[N+](CCCC)(CCCC)CCOCCOCCOc1ccc(C[C@H](NC(=O)[C@H]2NC(=O)[C@H](CCCCN(C)C(C)=O)NC(=O)[C@H](Cc3c[nH]c4c(C)cccc34)NC(=O)[C@H]([C@@H](C)O)NC(=O)[C@H](CC(=O)N(C)C)NC(=O)[C@@H](NC(=O)CCOCCOCC[N+](C)(C)C)C(C)(C)SSC2(C)C)C(=O)N[C@@H](Cc2ccc3ccccc3c2)C(=O)NC2(C(=O)N[C@@H](CCCCN(C)C(C)=O)C(=O)N[C@@H](CC(N)=O)C(=O)N[C@@H](Cc3cccnc3)C(=O)N(C)CC(=O)N(C)C)CCOCC2)cc1 [compound 263, cPEG3aCO-Pen(3)-N(N(Me)2)-T-7MeW-K(NMeAc)-Pen(3)-TBAPEG3F-2Nal-THP-K(NMeAc)-N-3Pya-Sar-CON(Me)2] ({Me3N+(CH2)2O(CH2)2O(CH2)2CO}-[Pen]D(NMe2)T[Trp(7-Me)][Lys(Me)](Ac)[Pen]Y(X50)[2Nal][Thp][Lys(Me)](Ac)N[3Pal][Sar]-NMe2; disulfide 1-6 (inferred)) | 140 A^2 | 5 nM
5 | CC(=O)NCCCC[C@@H]1NC(=O)[C@H](Cc2c[nH]c3c(C)cccc23)NC(=O)[C@H]([C@@H](C)O)NC(=O)[C@H](CC(N)=O)NC(=O)[C@@H](NC(=O)C(COCCOCC[N+](C)(C)C)NC(C)=O)C(C)(C)SSC(C)(C)[C@@H](C(=O)N[C@@H](Cc2ccc(OCCCCC[N+](C)(C)C)cc2)C(=O)N[C@@H](Cc2ccc3ccccc3c2)C(=O)NC2(C(=O)N[C@@H](CCCCNC(C)=O)C(=O)N[C@@H](CC(N)=O)C(=O)N[C@@H](Cc3cccnc3)C(=O)N(C)CC(N)=O)CCOCC2)NC1=O (mixture of isomers) [compound 556, MeCO-APEG2Ser(RS)-Pen(3)-N-T-7MeW-K(Ac)-Pen(3)-TMAPF-2Nal-THP-K(Ac)-N-3Pya-Sar-CONH2] | 163 A^2 | 5.9 nM

The remaining compounds from weak to strong by IC50 (IL-23R), led by results:

Row | EPSA [1] | IC50 (IL-23R) | Compound
6 | 137 A^2 | 610 nM | CCCCCCCCCCCCCCCC[N+](C)(C)CCc1cn(CCOc2ccc(C[C@H](NC(=O)[C@H]3NC(=O)[C@H](CCCCN(C)C(C)=O)NC(=O)[C@H](Cc4c[nH]c5c(C)cccc45)NC(=O)[C@H]([C@@H](C)O)NC(=O)[C@H](CC(=O)N(C)C)NC(=O)[C@@H](NC(=O)CCOCCOCC[N+](C)(C)C)C(C)(C)SSC3(C)C)C(=O)N[C@@H](Cc3ccc4ccccc4c3)C(=O)NC3(C(=O)N[C@@H](CCCCN(C)C(C)=O)C(=O)N[C@@H](CC(N)=O)C(=O)N[C@@H](Cc4cccnc4)C(=O)N(C)CC(=O)N(C)C)CCOCC3)cc2)nn1 [compound 291, cPEG3aCO-Pen(3)-N(N(Me)2)-T-7MeW-K(NMeAc)-Pen(3)-Y(OTzlChC16)-2Nal-THP-K(NMeAc)-N-3Pya-Sar-CON(Me)2] ({Me3N+(CH2)2O(CH2)2O(CH2)2CO}-[Pen]D(NMe2)T[Trp(7-Me)][Lys(Me)](Ac)[Pen]Y(X28)[2Nal][Thp][Lys(Me)](Ac)N[3Pal][Sar]-NMe2; disulfide 1-6 (inferred))
7 | 162 A^2 | 80 nM | CC(=O)N(C)CCCC[C@@H]1NC(=O)[C@H](Cc2c[nH]c3c(C)cccc23)NC(=O)[C@H]([C@@H](C)O)NC(=O)[C@H](CC(=O)N(C)C)NC(=O)[C@@H](NC(=O)CCOCCOCC[N+](C)(C)C)C(C)(C)SSC(C)(C)[C@@H](C(=O)N[C@@H](Cc2ccc(OCCCCC[N+](C)(C)C)cc2)C(=O)N[C@@H](Cc2c[nH]c3ccccc23)C(=O)NC2(C(=O)N[C@@H](CCCCN(C)C(C)=O)C(=O)N[C@@H](CC(N)=O)C(=O)N[C@@H](Cc3cccnc3)C(=O)N(C)CC(=O)N(C)C)CCOCC2)NC1=O [compound 497, cPEG3aCO-Pen(3)-N(N(Me)2)-T-7MeW-K(NMeAc)-Pen(3)-TMApF-W-THP-K(NMeAc)-N-3Pya-Sar-CON(Me)2] ({Me3N+(CH2)2O(CH2)2O(CH2)2CO}-[Pen]D(NMe2)T[Trp(7-Me)][Lys(Me)](Ac)[Pen]Y(X3)W[Thp][Lys(Me)](Ac)N[3Pal][Sar]-NMe2; disulfide 1-6)
8 | 141 A^2 | 22 nM | CC(=O)N[C@@H]1C(=O)N[C@@H](CC(=O)N(C)C)C(=O)N[C@@H]([C@@H](C)O)C(=O)N[C@@H](Cc2c[nH]c3c(C)cccc23)C(=O)N[C@H](COCCOCC[N+](C)(C)C)C(=O)N[C@H](C(=O)N[C@@H](Cc2ccc(OCCOCCOCC[N+](C)(C)C)cc2)C(=O)N[C@@H](Cc2ccc3ccccc3c2)C(=O)NC2(C(=O)N[C@@H](COCCOCC[N+](C)(C)C)C(=O)N[C@@H](CC(N)=O)C(=O)N[C@@H](Cc3cccnc3)C(=O)N(C)CC(=O)N(C)C)CCOCC2)C(C)(C)SSC1(C)C (relative stereo) [compound 255, MeCO-Pen(3)-N(N(Me)2)-T-7MeW-APEG2Ser(R*)-Pen(3)-APEG3F-2Nal-THP-APEG2Ser(S*)-N-3Pya-Sar-CON(Me)2]
9 | 146 A^2 | 6.9 nM | CCCCCCCC[N+](C)(C)CCc1cn(CCOc2ccc(C[C@H](NC(=O)[C@H]3NC(=O)[C@H](CCCCNC(C)=O)NC(=O)[C@H](Cc4c[nH]c5c(C)cccc45)NC(=O)[C@H]([C@@H](C)O)NC(=O)[C@H](CC(N)=O)NC(=O)[C@@H](NC(C)=O)C(C)(C)SSC3(C)C)C(=O)N[C@@H](Cc3ccc4ccccc4c3)C(=O)NC3(C(=O)N[C@@H](CCCCNC(C)=O)C(=O)N[C@@H](CC(N)=O)C(=O)N[C@@H](Cc4cccnc4)C(=O)N(C)CC(N)=O)CCOCC3)cc2)nn1 [compound 250] (Ac-[Pen]NT[Trp(7-Me)]K(Ac)[Pen]Y(X60)[2Nal][Thp]K(Ac)N[3Pal][Sar]-NH2; disulfide 1-6 (inferred))
10 | 162 A^2 | 3.2 nM | CNC(=O)C[C@@H]1NC(=O)[C@@H](NC(C)=O)C(C)(C)SSC(C)(C)[C@@H](C(=O)N[C@@H](Cc2ccc(OCCN)cc2)C(=O)N[C@@H](Cc2ccc3ccccc3c2)C(=O)NC2(C(=O)N[C@@H](CCCCNC(C)=O)C(=O)N[C@@H](CC(N)=O)C(=O)N[C@@H](Cc3cccnc3)C(=O)N(C)CC(N)=O)CCOCC2)NC(=O)[C@H](CCCCNC(C)=O)NC(=O)[C@H](Cc2c[nH]c3c(C)cccc23)NC(=O)[C@H]([C@@H](C)O)NC1=O [compound 46] (Ac-[Pen]D(NHMe)T[Trp(7-Me)]K(Ac)[Pen][AEF][2Nal][Thp]K(Ac)N[3Pal][Sar]-NH2; disulfide 1-6 (inferred))

Reference: US20260022143A1, “Cyclic Peptide Inhibitors of IL-23” (JANSSEN PHARMACEUTICA NV, priority 2022, published 2026)
